Measured values published in article PMC11523249, “Expanding the antiprotozoal activity and the mechanism of action of n-butyl and iso-butyl ester of quinoxaline-1,4-di-N-oxide derivatives against Giardia lamblia, Trichomonas vaginalis, and Entamoeba histolytica. An in vitro and in silico approach” (Journal of Enzyme Inhibition and Medicinal Chemistry, 2024).
Read-outs that look alike come from different tables or passages of the source.

Experiments:
[1] = system: G. lamblia WB strain; assay: In vitro susceptibility assay, G. lamblia trophozoites; format: cell-based, Giardia lamblia
Method: (§1) G. lamblia WB strain, T. vaginalis GT3 strain, and E. histolytica strain HM1-IMSS were used in all experiments, all parasitic strains were obtained from the Unidad de Investigación Médica en Enfermedades Infecciosas y Parasitarias, Hospital de Pediatría, Instituto Mexicano del Seguro Social. In vitro susceptibility assays to determine IC50 values were performed using a method previously described. For this, 4 × 10^4 G. lamblia; 6 × 10^3 E. histolytica, or 4 × 10^4 T. vaginalis trophozoites were incubated for 48 h at 37 °C with different concentrations of quinoxaline derivatives T-137 to T-170 (0.5 ng/mL to 10 μg/mL) using dimethyl sulfoxide (DMSO) (0.05%) as solvent. Metronidazole and albendazole were used as positive controls, and parasites in the medium without drugs containing DMSO (0.05%) were included as negative controls. At the end of the incubation period, trophozoites were washed and subcultured for another 48 h in a fresh medium without drugs. Then, trophozoites were counted with a haemocytometer and the IC50 was calculated by Probit analysis. Experiments were carried out in triplicate and repeated at least twice.

[2] = system: T. vaginalis GT3 strain; assay: In vitro susceptibility assay, T. vaginalis trophozoites; format: cell-based, Trichomonas vaginalis
Method: as §1

[3] = system: E. histolytica strain HM1-IMSS; assay: In vitro susceptibility assay, E. histolytica trophozoites; format: cell-based, Entamoeba histolytica
Method: as §1

[4] = system: murine macrophage cell line J774.2; assay: Cytotoxic evaluation, MTT colorimetric assay; format: cell-based; conditions: murine macrophages J774.2, read-out: Cytotoxicity (Macrophages J774.2) (CC50)
Method: The murine macrophage cell line J774.2 was maintained in culture flasks with RPMI 1640 medium supplemented with 10% FBS, and 100 U/mL antibiotic-antifungal mixture (Gibco). Cells were incubated at 37 °C with 5% CO2 and humidity. Murine macrophage cell line J774.2 is maintained at Laboratorio de Estudios Epidemiológicos, Clínicos, Diseños Experimentales e Investigación, Facultad de Ciencias Químicas, Universidad Autónoma “Benito Juárez” de Oaxaca. Macrophages were washed and viability was assessed by the MTT colorimetric assay. In a 96-well microplate, 1 × 10^5 macrophages were added per well and a dose-response assay was performed. Compounds were evaluated using serial dilutions to determine half-maximal cytotoxic concentration (CC50) values in triplicate considering 0.2% DMSO as negative control.

[5] = biological target: T1, recombinant E. histolytica thioredoxin reductase (EhTRXR) (Entamoeba histolytica, UniProt C4LW95); assay: Inhibition of EhTrxR DTNB reductase activity; format: biochemical; conditions: for inhibition at 100 µM: pH 7, read-out: EhTrxR inhibitory effect (disulphide reductase activity)
T1 construct: His-tag (pET28a) (N); made in house; host or cells: E. coli BL21 (DE3)
T1 sequence (C4LW95 1-314): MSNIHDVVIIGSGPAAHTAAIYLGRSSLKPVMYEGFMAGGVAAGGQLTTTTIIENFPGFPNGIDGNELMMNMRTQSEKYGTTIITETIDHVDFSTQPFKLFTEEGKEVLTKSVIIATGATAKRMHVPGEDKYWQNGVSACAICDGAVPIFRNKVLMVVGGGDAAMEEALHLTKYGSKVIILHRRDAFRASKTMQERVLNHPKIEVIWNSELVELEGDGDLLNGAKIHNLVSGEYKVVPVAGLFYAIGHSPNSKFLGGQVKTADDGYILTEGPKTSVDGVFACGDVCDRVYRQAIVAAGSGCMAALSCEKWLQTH
Method: Recombinant E. histolytica thioredoxin reductase (EhTRXR) was expressed in E. coli BL21 (DE3) as His-tag (N-terminal) recombinant proteins using pET28a vector, and it was purified using IMAC as previously described. 5,5′-Dithiobis(2-nitrobenzoic acid) (DTNB) reductase activity was measured by monitoring the production of thionitrobenzoate at 405 nm in a reaction mixture comprising 50 mM potassium phosphate, pH 7.0, 2 mM EDTA, 300 µM NADPH, 5 mM DTNB, and 0.1 µM EhTRXR. Activity was calculated using the molar extinction coefficient at 405 nm of 13.6 mM^−1cm^− 1 and considering that 1 mol of NADPH yields 2 mol of thionitrobenzoate. The enzyme assays were performed at 30 °C, in a final volume of 50 μL, and using a Multiskan Ascent one-channel vertical light path filter photometer (Thermo Electron Co.). All results represent the arithmetic mean of at three independent experiments.

[6] = Giardia duodenalis, 48 h, read-out: G. lamblia (IC50 nM), trophozoites, 48 h at 37 °C, subcultured 48 h, Probit analysis
[7] = Trichomonas vaginalis, GT3, 48 h, read-out: T. vaginalis (IC50 nM), trophozoites, 48 h at 37 °C, subcultured 48 h, Probit analysis
[8] = Entamoeba histolytica, 48 h, read-out: E. histolytica (IC50 nM), trophozoites, 48 h at 37 °C, subcultured 48 h, Probit analysis
[9] = read-out: T. vaginalis (IC50 nM), trophozoites, 48 h at 37 °C, subcultured 48 h, Probit analysis
[10] = read-out: E. histolytica (IC50 nM), trophozoites, 48 h at 37 °C, subcultured 48 h, Probit analysis

SMILES | IC50 [1, 6] [nM] | IC50 [2, 7] [nM] | IC50 [3, 8] [nM] | CC50 [4] [nM] | IC50 ([5]; DTNB reductase activity, 30 °C, pH 7.0) [nM] | inhibition at 100 µM [5] [%] | IC50 [2, 9] [nM] | IC50 [3, 10] [nM] | IC50 ([1]; read-out: G. lamblia (IC50 nM), trophozoites, 48 h at 37 °C, subcultured 48 h, Probit analysis) [nM] | EhTrxR inhibitory effect (disulphide reductase activity) ([5]; 100 µM compound, 5 mM DTNB, 300 µM NADPH, 30 °C, pH 7.0) | Selectivity index, E. histolytica versus macrophages ([3]; CC50 J774.2 / IC50 E. histolytica) [fold]
CCCCOC(=O)c1ccc2c(c1)[n+]([O-])c(C(C)=O)c(C(F)(F)F)[n+]2[O-] [Compound T-145] | 40.3 ± 6.72 | 108 ± 16.1 | 57.8 ± 6.72 | > 200000 | 16000 | > 75 | – | – | – | – | –
Cc1ncc([N+](=O)[O-])n1CCO [Metronidazole, reference compound] | 1150 ± 40.9 | 210 ± 8.76 | 251 ± 5.48 | – | – | – | – | – | – | – | –
CC(C)COC(=O)c1ccc2c(c1)[n+]([O-])c(C(=O)c1cccs1)c(C(F)(F)F)[n+]2[O-] [Compound T-164] | 107 ± 9.21 | 118 ± 10.5 | 27.3 ± 5.26 | 43800 ± 1890 | – | – | – | – | – | – | –
CC(=O)c1c(C)[n+]([O-])c2ccc(C(=O)OCC(C)C)cc2[n+]1[O-] [Compound T-155] | – | 192 ± 6.29 | 58.2 ± 1.57 | 87220 ± 213 | – | 50 to 75 | – | – | – | – | –
CCCCOC(=O)c1ccc2c(c1)[n+]([O-])c(C(=O)OC(C)(C)C)c(C)[n+]2[O-] [Compound T-140] | 49.2 ± 2.66 | ~100 | ~30 | > 200000 | – | 50 to 75 | 101 ± 3.99 | 29.2 ± 2.66 | – | – | –
COC(=O)c1c(C)[n+]([O-])c2ccc(C(=O)OCC(C)C)cc2[n+]1[O-] [Compound T-156] | 95.8 ± 4.49 | 248 ± 5.99 | 59.9 ± 5.99 | – | – | – | – | – | – | – | –
CCCCOC(=O)c1ccc2c(c1)[n+]([O-])c(C(=O)Nc1ccccc1)c(-c1ccccc1)[n+]2[O-] [Compound T-151] | 114 ± 4.38 | 153 ± 3.28 | 65.6 ± 2.19 | 44100 ± 3450 | – | – | – | – | – | – | –
CCCCOC(=O)c1ccc2c(c1)[n+]([O-])c(C(C)=O)c(C)[n+]2[O-] [Compound T-137] | 77 ± 9.43 | 258 ± 6.29 | 83.3 ± 1.57 | 58400 ± 1120 | – | – | – | – | – | – | –
CCCCOC(=O)c1ccc2c(c1)[n+]([O-])c(C(=O)c1ccccc1)c(C(F)(F)F)[n+]2[O-] [Compound T-148] | 39.2 ± 3.46 | < 90 | 16.1 ± 3.46 | 48400 ± 1650 | – | 50 to 75 | 82.9 ± 8.06 | – | – | – | –
CC(C)COC(=O)c1ccc2c(c1)[n+]([O-])c(C(=O)c1ccco1)c(C(F)(F)F)[n+]2[O-] [Compound T-165] | 101 ± 2.36 | 125 ± 2.36 | 30.6 ± 2.36 | 81800 ± 3590 | – | – | – | – | – | – | –
Cc1c(C(=O)Nc2ccccc2)[n+]([O-])c2cc(C(=O)OCC(C)C)ccc2[n+]1[O-] [Compound T-158] | 62 ± 1.27 | 164 ± 10.1 | 38 ± 2.53 | > 200000 | – | – | – | – | – | – | –
CCCCOC(=O)c1ccc2c(c1)[n+]([O-])c(C(=O)Nc1ccc(C)cc1C)c(C)[n+]2[O-] [Compound T-144] | 46.1 ± 1.18 | 118 ± 4.73 | 47.3 ± 4.73 | – | – | – | – | – | – | – | –
CCCCOC(=O)c1ccc2c(c1)[n+]([O-])c(C(=O)OC)c(C)[n+]2[O-] [Compound T-138] | 48.5 ± 1.5 | 88 | ~40 | 46200 ± 3260 | – | – | 88.3 ± 12 | 40.4 ± 4.49 | – | – | –
CCCCOC(=O)c1ccc2c(c1)[n+]([O-])c(C(=O)c1cccs1)c(C(F)(F)F)[n+]2[O-] [Compound T-149] | < 30 | 97.7 ± 9.09 | 18.2 ± 2.27 | – | – | 50 to 75 | – | – | 27.3 ± 2.27 | – | –
Cc1ccc(NC(=O)c2c(C)[n+]([O-])c3ccc(C(=O)OCC(C)C)cc3[n+]2[O-])c(C)c1 [Compound T-159] | 94.5 ± 3.54 | 105 ± 1.18 | 30.7 ± 5.91 | > 200000 | – | – | – | – | – | low inhibition | –
CC(C)COC(=O)c1ccc2c(c1)[n+]([O-])c(C(=O)Nc1ccccc1)c(-c1ccccc1)[n+]2[O-] [Compound T-169] | 98.4 ± 2.19 | 116 ± 5.47 | 43.7 ± 2.19 | > 200000 | – | 50 to 75 | – | – | – | – | –
CCCCOC(=O)c1ccc2c(c1)[n+]([O-])c(C(=O)OCc1ccccc1)c(C)[n+]2[O-] [Compound T-141] | 70.7 ± 1.22 | 166 ± 6.1 | ~40 | > 200000 | – | – | – | 40.2 ± 2.44 | – | – | –
CC(C)COC(=O)c1ccc2c(c1)[n+]([O-])c(C(=O)c1ccccc1)c(C(F)(F)F)[n+]2[O-] [Compound T-163] | 34.5 ± 2.3 | 100 ± 5.76 | 57.6 ± 2.3 | – | – | 50 to 75 | – | – | – | – | –
CCCCOC(=O)c1ccc2c(c1)[n+]([O-])c(C(=O)c1ccccc1)c(C)[n+]2[O-] [Compound T-142] | 36.8 ± 0.66 | < 90 | 9.2 ± 1.32 | 17600 ± 2140 | – | 50 to 75 | 81.5 ± 3.95 | – | – | – | 1918
CCCCOC(=O)c1ccc2c(c1)[n+]([O-])c(C(=O)OCC)c(C)[n+]2[O-] [Compound T-139] | 47.4 ± 5.75 | ~100 | ~30 | > 200000 | – | – | 103 ± 2.87 | 34.5 ± 7.18 | – | – | –
CCCCOC(=O)c1ccc2c(c1)[n+]([O-])c(C(=O)c1ccc3ccccc3c1)c(C(F)(F)F)[n+]2[O-] [Compound T-150] | 51.6 ± 2.27 | 124 ± 2.27 | 36.1 ± 1.14 | > 200000 | – | – | – | – | – | – | –
CC(C)COC(=O)c1ccc2c(c1)[n+]([O-])c(C(=O)c1ccc3ccccc3c1)c(C(F)(F)F)[n+]2[O-] [Compound T-166] | 41.3 ± 2.07 | 82.6 ± 4.13 | 50.6 ± 5.17 | – | – | – | – | – | – | – | –
Cc1c(C(=O)c2ccccc2)[n+]([O-])c2cc(C(=O)OCC(C)C)ccc2[n+]1[O-] [Compound T-157] | 43.4 ± 1.32 | 153 ± 6.58 | 55.2 ± 5.26 | 34200 ± 3040 | – | 50 to 75 | – | – | – | – | –
CCCSc1ccc2nc(NC(=O)OC)[nH]c2c1 [Albendazole, reference compound] | 49 ± 5.65 | 1830 ± 86.7 | 44000 ± 2470 | – | – | – | – | – | – | – | –
